The subject of data set [1] is CD2:CD58 interaction (SRBC expressing CD58 / Jurkat cells expressing CD2). The data set is described as follows: E-rosetting assay, sheep red blood cells / Jurkat T cells. It is filed as cell-based.
Method: Peptides were added to AET-treated sheep red blood cells (SRBC) (expressing CD58 protein) first, and Jurkat cells (expressing CD2 protein) labeled with BCECF were added later. Cells with five or more SRBC bound were counted as rosettes. Values are percent inhibition of peptide-treated cells and are expressed as the mean of three experimental values. Error bars represent standard error of the mean (SEM).
The ability of peptides to inhibit cell adhesion was evaluated using E-rosetting assay via interaction between sheep red blood cells (SRBC) expressing CD58 and Jurkat T cells expressing CD2 protein. When these cells are incubated, they adhere to each other. Each Jurkat cell adheres to many sheep red blood cells. Five or more SRBC adhering to a Jurkat cell is counted as positive E-rosetting.
The test system of data set [2] is collagen-induced arthritis. To be noted: cited from earlier work.

Molecules are shown by their SMILES.

We go through 1 molecule from US20200347136A1, “CONSTRAINED CYCLIC PEPTIDES AS INHIBITORS OF THE CD2:CD58 PROTEIN-PROTEIN INTERACTION FOR TREATMENT OF DISEASES AND AUTOIMMUNE DISORDERS” (Board of Supervisors for the University of Louisiana System, priority 2019, published 2020).

Broadly, the IC50 is the point on the concentration scale where inhibition reaches its midpoint. Lower therefore signals higher potency. Take `CC[C@H](C)[C@@H]1NC(=O)[C@H](CC(=O)O)NC(=O)[C@H](CC(=O)O)NC(=O)[C@@H]2CCCN2C(=O)[C@H]2CCCN2C(=O)[C@H](CC(=O)O)NC(=O)[C@H](Cc2ccc(O)cc2)NC(=O)[C@H]([C@@H](C)CC)NC(=O)[C@H](CO)NC(=O)[C@H](CCCCN)NC1=O` [Peptide 6, Cyclo(SIYDpPDDIK)]: in data set [1], the half-inhibitory concentration (IC50) is 9.4 ± 0.3 nM. Further, in data set [2] (0.5 mg/kg), the histopathology of paws result is “clear joint space with normal cartilage interface”. Moreover, the “anti-CII antibodies in sera” value in data set [2] (0.5 and 1 mg/kg i.v.) is “dose-dependent reduction”. Further, the “acute clinical signs of illness / direct toxicity” value in data set [2] (DBA/1 mice, during dosing) is on record as “minimal, if any, direct toxicity”.
